The results in this text go back to patent US20110224208A1, “NOVEL INHIBITORS OF FLAVIVIRUS REPLICATION” (KATHOLIEKE UNIVERSITEIT LEUVEN, K.U. LEUVEN R&D, priority 2008, published 2011).

Converted amounts (≈) assume the structure as drawn.

Data set [1] deals with HCV replicon I389luc-ubi-neo/NS3-3'/5.1. Description: Anti-HCV replicon assay (luciferase activity) in Huh-5-2 cells. It is filed as cell-based, Hepatitis C virus. The note with it: concentration required to inhibit luciferase activity in the replicon system by 50%. Put shortly: (§1)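 Huh-5-2 cells carrying the luciferase HCV replicon, seeded 24 h, then exposed to serial compound dilutions without G418 for 72 h at 37° C, 5% CO2. Replication read as luciferase luminescence, expressed as percentage of untreated cultures; culture density measured in parallel by MTS.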
In general terms: In antiviral work, replicon cells carry a viral genome segment that copies itself.

The subject of data set [2] is Huh-5-2 cells. As to the kind of experiment: Proliferation of exponentially growing Huh-5-2 cells (MTS method). The note with it: concentration required to inhibit the proliferation of exponentially growing Huh-5-2 cells by 50%. Put shortly:
as §1
For orientation: Formazan colour is commonly taken as a measure of viable cells.

Experiment in data set [3]: as above
The note with it: human, CC50, concentration required to inhibit the proliferation of exponentially growing Huh-5-2 cells by 50%. The method in brief:
as §1

Data set [4] relates to HCV replicon (RNA) synthesis. As to the kind of experiment: Quantitative analysis of HCV replicon RNA by Taqman real-time RT-PCR in Huh-5-2 cells. It is filed as cell-based, Hepatitis C virus. Here is the method: Replicon cells were plated at 7.5×10^3 cells per well in a 96-well plate plates at 37° C. and 5% CO2 in Dulbecco's modified essential medium containing 10% fetal calf serum, 1% nonessential amino acids and 1 mg/ml Geneticin. After allowing 24 h for cell attachment, different dilutions of compound were added to the cultures. Plates were incubated for 5 days, at which time RNA was extracted using the Qiamp Rneazyi Kit (Qiagen, Hilden, Germany). […] After initial activation of uracil-N-glycosylase at 50° C. for 2 minutes, RT was performed at 60° C. for 30 minutes, followed by inactivation of uracil-N-glycosylase at 95° C. for 5 minutes. Subsequent PCR amplification consisted of 40 cycles of denaturation at 94° C. for 20 seconds and annealing and extension at 62° C. for 1 minute in an ABI 7700 sequence detector. For each PCR run, negative template and positive template samples were used. The cycle threshold value (Ct-value) is defined as the number of PCR cycles for which the signal exceeds the baseline, which defines a positive value. The sample was considered to be positive if the Ct-value was <50. Results are expressed as genomic equivalents (GE).

Where [5] appears, read: Hepatitis C virus, Huh-5-2, 72 h.
Setting [6] is: Hepatitis C virus, Huh-5-2, concentration required to reduce the synthesis of HCV replicon by 50% as determined by real-time quantitative RT-PCR.

Broadly, the IC50 is the concentration needed to halve the response being measured. Low readings indicate higher potency, high ones lower potency. As usually defined, the CC50 is the concentration giving 50% cytotoxicity. High values mean lower toxicity to the cells, low ones greater toxicity to the cells. In turn, `COCCN1C(=O)c2c(Cl)cccc2C(C(=O)Nc2cccc(OC)c2)C1c1cccs1` (centres unmarked) [C24, 8-Chloro-2-(2-methoxyethyl)-N-(3-methoxyphenyl)-1-oxo-3-(thiophen-2-yl)-1,2,3,4-tetrahydroisoquinoline-4-carboxamide] gave a half-maximal inhibitory concentration (IC50) in data set [1] (setting [5]) of 35.7 µg/mL (≈ 75.9 µM). This compound also displayed a half-maximal cytotoxic concentration (CC50) in data set [2] (Table 2) of 125 µg/mL (≈ 265 µM).

What is called EC50 is the concentration that produces a half-maximal response. A higher EC50 goes with a need for much substance. As for `COCCN1C(=O)c2ccccc2C(C(=O)Nc2ccc(-n3cccc3)cc2)C1c1cccs1` (centres unmarked) [C116, N-(4-(1H-pyrrol-1-yl)phenyl)-2-(2-methoxyethyl)-1-oxo-3-(thiophen-2-yl)-1,2,3,4-tetrahydroisoquinoline-4-carboxamide], in data set [1] (setting [5]), the IC50 is 0.04 µg/mL (≈ 0.0848 µM). Further, the values for the CC50 at 72 h in data set [3] (Table 2) and in data set [3] (Table 4) were 72.4 µg/mL (≈ 154 µM) and greater than 50 µg/mL, respectively. For the same compound, the concentration giving a half-maximal response (EC50) in data set [4] (setting [6]) turned out to be 0.062 µg/mL (≈ 0.131 µM).

`COCCN1C(=O)c2ccccc2C(C(=O)Nc2cccc(OC)c2)C1CC(F)(F)F` (centres unmarked) [C71, 2-(2-methoxyethyl)-N-(3-methoxyphenyl)-1-oxo-3-(2,2,2-trifluoroethyl)-1,2,3,4-tetrahydroisoquinoline-4-carboxamide]: in data set [1] (setting [5]), the IC50 turned out to be 12.6 µg/mL (≈ 28.8 µM). In data set [2] (Table 2), this compound gave a CC50 of 125 µg/mL (≈ 286 µM).

For `COCCN1C(=O)c2ccccc2C(C(=O)NCc2ccc(OC)cc2)C1c1cccs1` (centres unmarked) [C79, N-(4-methoxybenzyl)-2-(2-methoxyethyl)-1-oxo-3-(thiophen-2-yl)-1,2,3,4-tetrahydroisoquinoline-4-carboxamide], inhibition in data set [1] (setting [5]) was half-maximal at 68.2 µg/mL (≈ 151 µM) (IC50). For the same compound, the CC50 in data set [2] (Table 2) came to 125 µg/mL (≈ 277 µM).

In data set [1] (setting [5]), `COCCN1C(=O)c2cc(F)ccc2C(C(=O)Nc2cccc(OC)c2)C1c1cccs1` (centres unmarked) [C52, 7-Fluoro-2-(2-methoxyethyl)-N-(3-methoxyphenyl)-1-oxo-3-(thiophen-2-yl)-1,2,3,4-tetrahydroisoquinoline-4-carboxamide] had an IC50 of 0.4 µg/mL (≈ 0.88 µM). In addition, the results for the CC50 at 72 h in data set [3] (Table 2) and in data set [3] (Table 4) were 81.2 µg/mL (≈ 179 µM) and greater than 50 µg/mL, respectively. For the same compound, the EC50 in data set [4] (setting [6]) is less than 0.4 µg/mL.

In data set [1] (setting [5]), `COCCN1C(=O)c2cc(C)ccc2C(C(=O)Nc2cccc(OC)c2)C1c1cccs1` (centres unmarked) [C41, 2-(2-Methoxyethyl)-N-(3-methoxyphenyl)-7-methyl-1-oxo-3-(thiophen-2-yl)-1,2,3,4-tetrahydroisoquinoline-4-carboxamide] displayed an IC50 of 0.5 µg/mL (≈ 1.11 µM). The CC50 at 72 h in data set [3] (Table 2) is 107 µg/mL (≈ 238 µM); in data set [3] (Table 4), greater than 50 µg/mL. Also, a half-maximal response in data set [4] (setting [6]) (EC50) required 0.28 µg/mL (≈ 0.621 µM).

In the case of `COCCN1C(=O)c2ccccc2C(C(=O)Nc2cccc(OC)c2)C1C#C[Si](C)(C)C` (centres unmarked) [C70, 2-(2-methoxyethyl)-N-(3-methoxyphenyl)-1-oxo-3-((trimethylsilyl)ethynyl)-1,2,3,4-tetrahydroisoquinoline-4-carboxamide], inhibition in data set [1] (setting [5]) was half-maximal at 3.33 µg/mL (≈ 7.39 µM) (IC50). In addition, in data set [2] (Table 2), the CC50 was 125 µg/mL (≈ 277 µM).

In data set [1] (setting [5]), `COCCN1C(=O)c2ccccc2C(C(=O)Nc2cccc(OC)c2)C1Cc1ccccc1` (centres unmarked) [C68, 3-Benzyl-2-(2-methoxyethyl)-N-(3-methoxyphenyl)-1-oxo-1,2,3,4-tetrahydroisoquinoline-4-carboxamide] gave an IC50 of 70.6 µg/mL (≈ 159 µM). The compound also returned a 50% cytotoxic concentration (CC50) in data set [2] (Table 2) of 125 µg/mL (≈ 281 µM).

The compound `COCCN1C(=O)c2ccccc2C(C(=O)Nc2cccc(OC)c2)C1c1cccs1` (racemic) [C2, 2-(2-methoxyethyl)-N-(3-methoxyphenyl)-1-oxo-3-(thiophen-2-yl)-1,2,3,4-tetrahydroisoquinoline-4-carboxamide] came in with an IC50 in data set [1] (72 hours, listed as C2 (trans)) of 1.3 µg/mL (≈ 2.98 µM). For the same compound, the CC50 was 41.2 µg/mL (≈ 94.4 µM) in data set [2] (Table 2, listed as C2 (trans)) and greater than 50 µg/mL in data set [2] (Table 4). Also, in data set [4] (concentration required to reduce the synthesis of HCV replicon by 50% as determined by real-time quantitative RT-PCR), the EC50 amounted to 17.000 µg/mL (≈ 38.9 µM).

In the case of `COCCN1C(=O)c2ccccc2C(C(=O)Nc2ccc(-c3ccccc3)nc2)C1c1cccs1` (centres unmarked) [C186, 2-(2-methoxyethyl)-1-oxo-N-(6-phenylpyridin-3-yl)-3-(thiophen-2-yl)-1,2,3,4-tetrahydroisoquinoline-4-carboxamide], in data set [1] (setting [5]), the 50% inhibitory concentration (IC50) was 0.04 µg/mL (≈ 0.0827 µM). Further, the CC50 at 72 h was 2.79 µg/mL (≈ 5.77 µM) in data set [3] (Table 2) and greater than 50 µg/mL in data set [3] (Table 4). The compound further showed an EC50 in data set [4] (setting [6]) of 0.045 µg/mL (≈ 0.0931 µM).

In turn, `COCCN1C(=O)c2ccccc2C(C(=O)Nc2cccc(OC)c2)C1c1cccs1` (racemic) [C1, 2-(2-methoxyethyl)-N-(3-methoxyphenyl)-1-oxo-3-(thiophen-2-yl)-1,2,3,4-tetrahydroisoquinoline-4-carboxamide] yielded a 50% inhibitory concentration (IC50) in data set [1] (72 hours, listed as C1 (cis)) of 0.3 µg/mL (≈ 0.687 µM). The compound also yielded a CC50 at 72 h in data set [3] (Table 4) greater than 50 µg/mL. This compound gave a CC50 in data set [2] (Table 2, listed as C1 (cis)) of 83.7 µg/mL (≈ 192 µM). The EC50 in data set [4] (setting [6]) came to 24 µg/mL (≈ 55 µM).

On to `COc1cccc(NC(=O)C2c3ccccc3C(=O)N(CC3CCCO3)C2c2cccs2)c1` (centres unmarked) [C31, N-(3-methoxyphenyl)-1-oxo-2-((tetrahydrofuran-2-yl)methyl)-3-(thiophen-2-yl)-1,2,3,4-tetrahydroisoquinoline-4-carboxamide], for which the IC50 in data set [1] (setting [5]) worked out at 1.1 µg/mL (≈ 2.38 µM). Besides, the CC50 at 72 h is 66.5 µg/mL (≈ 144 µM) in data set [3] (Table 2) and greater than 50 µg/mL in data set [3] (Table 4). Also, the EC50 in data set [4] (setting [6]) came to 18 µg/mL (≈ 38.9 µM).

With `COCCN1C(=O)c2ccccc2C(CNc2ccc(Cl)cc2)C1c1cccs1` (centres unmarked) [C78, 4-((4-chlorophenylamino)methyl)-2-(2-methoxyethyl)-3-(thiophen-2-yl)-3,4-dihydroisoquinolin-1(2H)-one], the IC50 in data set [1] (setting [5]) worked out at 50.5 µg/mL (≈ 118 µM). For the same compound, the CC50 in data set [2] (Table 2) came to 125 µg/mL (≈ 293 µM).

Turning to `CCOC(=O)c1cccc(NC(=O)C2c3ccccc3C(=O)N(CCOC)C2c2cccs2)c1` (centres unmarked) [C46, Ethyl 3-(2-(2-methoxyethyl)-1-oxo-3-(thiophen-2-yl)-1,2,3,4-tetrahydroisoquinoline-4-carboxamido)benzoate], the IC50 in data set [1] (setting [5]) was found to be 1.4 µg/mL (≈ 2.93 µM). In addition, the CC50 at 72 h is 86.3 µg/mL (≈ 180 µM) in data set [3] (Table 2) and greater than 50 µg/mL in data set [3] (Table 4). Moreover, the EC50 in data set [4] (setting [6]) was 1.19 µg/mL (≈ 2.49 µM).
